Measured values reported in PMC7913925, “Design and Evaluation of a Polypeptide That Mimics the Integrin Binding Site for EDA Fibronectin to Block Profibrotic Cell Activity” (International Journal of Molecular Sciences, 2021).
Bridges are numbered along the chain shown (N, C = ends). Where no end group is shown, it is not given here.

Columns and labels:
[1] = system: ERK1/2 in NIH/3T3 fibroblasts; assay: Western blot ERK1/2 phosphorylation; type: cell-based, mouse; conditions: TGF-β1 10 ng/mL, AF38Pep 10 µg/mL
Experimental: (§1) Total protein was extracted from cells in RIPA lysis buffer containing 1% protease inhibitor cocktail, 1% phenylmethylsulfonyl fluoride, and 1% sodium orthovanadate (Santa Cruz Biotechnology, Santa Cruz, CA, USA). Protein was quantified by Micro BCA Protein Assay Kit (Thermo Fisher Scientific) before 7.5% SDS-PAGE and transfer to nitrocellulose. Membranes were blocked with 5% bovine serum albumin (BSA; Sigma-Aldrich)/0.5% Tween-20 (Sigma-Aldrich)/PBS for 1 h, RT, followed by incubation with primary antibodies diluted in 1% BSA/0.1% Tween-20/PBS, overnight at 4 °C. Primary antibodies were: anti-phosphoY204/Y187 ERK1/2 (1:1000); anti-ERK1/2 (1:1000); anti-phosphoY861 FAK (1:1000); anti-FAK (1:2000). Immunoblotting for anti-GAPDH (1:2500) was used as a protein loading control. Following wash steps, membranes were incubated in goat anti-rabbit IgG H&L secondary antibody (horseradish peroxidase, HRP conjugate, […]) (Abcam; 1:5000 dilution, 1% BSA/0.1% Tween-20/PBS). Detection was performed using Immobilon reagent (Merck Millipore, Burlington, MA, USA) and imaged using a Tanon 5500 Chemiluminescent Imaging System (Tanon, Shanghai, China).

EDA-FN–ITGA4 interaction = assay: Co-IP of EDA-FN with ITGA4; type: cell-based; conditions: 48 h, Co-IP with anti-ITGA4
Experimental: as §1
A volume of 25 µg total protein from cell lysate in nondenaturing lysis buffer containing protease inhibitors was immunoprecipitated (IP) using anti-ITGA4 antibodies linked to protein A/G sepharose beads (Abcam). […]

[2] = target: FN-RGD (RGD motif of fibronectin) (Homo sapiens, UniProt P02751); assay: Isothermal calorimetry, AF38Pep with FN-RGD; type: binding; conditions: 25 °C, pH 7
Experimental: Custom designed peptides were resuspended in sterile-filtered HEPES buffered saline (140 mM NaCl, 1.5 mM Na2HPO4, 50 mM HEPES; pH 7). The larger EDA-FN binding peptide was diluted to 15 µM, degassed and added to the calorimetry chamber well. Three smaller test peptides (fibronectin EDA-peptide, FN-EDA; fibronectin RGD-peptide, FN-RGD and collagen I RGD-peptide, COL-RGD) were diluted to 300 µM, degassed and each was separately loaded into the calorimetry injection needle. The chamber well temperature was kept consistent at 25 °C. Blank buffer was used to replace either the well peptide or the injection needle peptide to account for background heat generation. Isothermal titration calorimetry was performed using a MicroCal iTC200 (Malvern Panalytical, Malvern, UK) and dissociation constant (KD) and association constant (KA) were calculated using the one set of sites model fitting (with number of binding sites assumed to be 1) in MicroCal Origin Software v8.5 (Malvern Panalytical).

[3] = system: mouse NIH/3T3 dermal fibroblast cells; assay: Cytotoxicity/proliferation assay (CCK-8) NIH/3T3; type: cell-based; conditions: TGF-β1 stimulated NIH/3T3, over 72 h
Experimental: HFL1 cells were cultured in Kaighn’s modified Ham’s F-12 (F-12K) medium (Sigma-Aldrich) containing NaHCO3 and HEPES buffered to pH 7. Cells were grown to confluence in T75 culture flasks in the presence of 10% fetal bovine serum (FBS; Gibco, Thermo Fisher Scientific, Waltham, MA, USA). HFL1 cells were subcultured using 0.05% trypsin at a ratio of 1:3. NIH/3T3 cells were cultured in Dulbecco’s Modified Eagle Medium (DMEM; HyClone, Thermo Fisher Scientific) containing 100 U/mL penicillin and 100 μg/mL streptomycin. Cells were grown to confluence in T75 culture flasks in the presence of 10% FBS. NIH/3T3 cells were subcultured using 0.05% trypsin/EDTA at a ratio of 1:3. All cells were maintained at 37 °C and 5% CO2, and growth medium was replenished every 3 days until experimentation. Cells were growth-arrested in serum-free medium for 48 h before experiments, and all experiments were performed under serum-free conditions using cells between passages 3 and 8.
Cells were seeded into 12-well culture plates at a density of 2.5 × 10^4 and when cultures reached 50% confluence, the culture medium was replaced with fresh serum-free F12K or serum-free DMEM/F12 for 48 h (growth arrest). […] Absorbance was measured at 450 nm wavelength using a Bio-Rad optical plate reader.

[4] = system: Tgfb1 mRNA in NIH/3T3 fibroblasts; assay: qRT-PCR Tgfb1 mRNA; type: cell-based, mouse; conditions: 48 h, TGF-β1 10 ng/mL
Experimental: Reverse transcription (RT) and real-time quantitative PCR (qRT-PCR) were used to assess ACTA2/Acta2, Col1a1, Col3a1, Fn1, Eda-Fn1, Mmp9, Tgfb1, Ltbp1, Hic5, and Mrtfa mRNA expressions. Custom PCR primers were designed in-house (Table 2) and then synthesized by BGI (Beijing, China). Cells were grown in 6-well culture plates and washed with phosphate buffered saline (PBS) before lysis with TRIzon Reagent (CWBio, Beijing, China) and total RNA purification according to the manufacturer’s protocol. Reverse transcription was carried using the TransScript First-Strand cDNA Synthesis SuperMix kit according to the manufacturer’s protocol (TransGen, Beijing, China), using the random primer method for the initiation of cDNA synthesis. Nuclease-free H2O replaced the RNA sample to serve as a negative control for the reverse transcription reaction. For qRT-PCR, 10 µL 2× TransStart Top Green qPCR SuperMix was added to each well of a 96-well PCR plate containing 0.4 µL forward primer, 0.4 µL reverse primer, […], and nuclease-free water to a total volume of 20 µL. The qRT-PCR reaction was completed using a CFX96 Real-Time PCR Detection System (Bio-Rad Laboratories, Hercules, CA, USA). Amplification used the following parameters: 94 °C for 30 s, followed by 40 cycles of 94 °C for 5 s, 55 °C for 15 s, 72 °C for 10 s, and then a dissociation stage (melt-curve). […]

For “VMPYISTTPAKPCTSENCGNSWYGGFKSKNENKIYFIN (disulfide 13-18 (inferred)) [AF38Pep]”, the ERK1/2 phosphorylation ([1]; 1 h) was “significantly suppressed”, the ERK1/2 phosphorylation ([1]; 12 h) was “not prevented” and the “EDA-FN–ITGA4 interaction” value (EDA-FN–ITGA4 interaction) was “specifically inhibited EDA-FN–ITGA4 interactions”. For the same sequence, the “ITC interaction (thermogram)” value [2] was “not between AF38Pep and FN-RGD or COL-RGD”, the cytotoxicity/proliferation [3] was “did not interfere with cell proliferation nor incur cell death” and the “TGF-β1 mRNA expression” value [4] was “attenuated”.
